The results in this text go back to PubChem BioAssay (NCI).

Some test systems named below: A549 NSCLC; MALME-3M melanoma; RPMI-8226 leukemia; NCI-H522 lung; U251 CNS; SK-MEL-2 melanoma; COLO 205 colon; RXF 393 renal; SK-MEL-5 melanoma; CAKI-1 renal.
What all share (assay): inhibition of tumour cell growth, NCI panel, 48 h

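In this assay, cells in 96-well plates receive the compound at five concentrations for 48 hours. Endpoints are linearly interpolated between the surrounding concentrations. Abbreviation: GI50, concentration required for 50% inhibition of growth. TGI denotes the concentration required for complete inhibition of growth.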

Consider `Nc1ccccc1C(=O)CC1OC(=O)c2ccccc21` (stereo unspecified), for which the TGI in the test with A549 NSCLC is above 100 µM; with MALME-3M melanoma, above 100 µM; in the test with RPMI-8226 leukemia, above 100 µM; in the test on NCI-H522 lung, above 100 µM; in the test on U251 CNS, above 100 µM; in the test on SK-MEL-2 melanoma, 88 µM.
`Cc1ccc(S(=O)(=O)NC(=O)C2C(=O)CC3(CCCCC3)CC2=O)cc1`: the TGI in the test on A549 NSCLC was above 100 µM; with RPMI-8226 leukemia, 51.5 µM; in the test with NCI-H522 lung it was 59.9 µM; in the test on COLO 205 colon, 32.2 µM; in the test on RXF 393 renal, above 100 µM; in the test with U251 CNS, above 100 µM. Moreover, the results for the TGI with SK-MEL-5 melanoma and with CAKI-1 renal were 67 µM and 65.9 µM, respectively.
For `C=C1C(=O)O[C@H]2C[C@@H]1CC/C(C)=C/CC/C(C)=C/CC[C@H]2C`, the GI50 in the test on A549 NSCLC is 9.73 µM; in the test on RPMI-8226 leukemia it was 5.46 µM; with NCI-H522 lung, 23.5 µM; with COLO 205 colon, 30.1 µM; in the test with RXF 393 renal, 9.67 µM; with U251 CNS it was 14.6 µM. Also, the results for the GI50 in the test with SK-MEL-2 melanoma, with SK-MEL-5 melanoma and in the test on CAKI-1 renal were 30.9 µM, 17.3 µM and 17 µM, respectively. For the same compound, the TGI was 33 µM with A549 NSCLC; 13.9 µM in the test with RPMI-8226 leukemia; above 66.3 µM in the test on NCI-H522 lung; above 83.7 µM in the test with COLO 205 colon; 27.7 µM in the test on RXF 393 renal; 28.3 µM with U251 CNS. In addition, the TGI in the test on SK-MEL-2 melanoma was above 61.9 µM; with SK-MEL-5 melanoma it was 32.2 µM; in the test on CAKI-1 renal it was 33.6 µM.
Consider `[Cl-].[O-]/N=C(\c1ccccc1)c1ccccn1.[O-]/N=C(\c1ccccc1)c1ccccn1.[O-]/N=C(\c1ccccc1)c1ccccn1.[Sm+3]`, for which the GI50 is 35.8 µM in the test on A549 NSCLC; 24.6 µM in the test on MALME-3M melanoma; 47.4 µM in the test on RPMI-8226 leukemia; 24.6 µM with NCI-H522 lung; 31.3 µM in the test with COLO 205 colon; 38 µM in the test with U251 CNS. Also, the GI50 in the test with SK-MEL-2 melanoma was 22 µM; in the test on SK-MEL-5 melanoma, 20.5 µM; in the test on CAKI-1 renal, 27.1 µM. For the same compound, the TGI is above 100 µM in the test on A549 NSCLC; 88.6 µM with MALME-3M melanoma; above 100 µM in the test with RPMI-8226 leukemia; 75.3 µM in the test on NCI-H522 lung; above 100 µM in the test on COLO 205 colon; above 100 µM with U251 CNS. Moreover, the TGI in the test with SK-MEL-2 melanoma was 52.8 µM; in the test with SK-MEL-5 melanoma it was 47 µM; in the test with CAKI-1 renal, 89.5 µM.
In the case of `CC(C)=CCc1c(OC(=O)c2c(C)cc(O)cc2O)cc(CO)c(CO)c1O`, the TGI was 62.2 µM with A549 NSCLC; 45.4 µM in the test with MALME-3M melanoma; 39.2 µM in the test on NCI-H522 lung; 33.8 µM in the test with COLO 205 colon; 40 µM in the test with U251 CNS; 59.5 µM in the test on SK-MEL-2 melanoma. For the same compound, the TGI with SK-MEL-5 melanoma amounted to 29.1 µM; in the test with CAKI-1 renal, 20.5 µM.
Take `CCOc1ccc2nc(SCc3nc4n(n3)S(=O)(=O)c3ccccc3N4C)sc2c1`: the GI50 in the test with A549 NSCLC is above 100 µM; in the test on RPMI-8226 leukemia, 31.5 µM; with NCI-H522 lung, 86.4 µM; with COLO 205 colon it was above 100 µM; with RXF 393 renal, 30.1 µM; with U251 CNS it was 68.5 µM. Further, the GI50 in the test on SK-MEL-2 melanoma, in the test with SK-MEL-5 melanoma and with CAKI-1 renal was above 100 µM in each case. For the same compound, the TGI in the test on A549 NSCLC was above 100 µM; with RPMI-8226 leukemia, above 100 µM; in the test with NCI-H522 lung, above 100 µM; with COLO 205 colon, above 100 µM; with RXF 393 renal it was 97.3 µM; with U251 CNS it was above 100 µM. Besides, the TGI in the test with SK-MEL-2 melanoma, in the test with SK-MEL-5 melanoma and with CAKI-1 renal was above 100 µM throughout.
For `CCCC(=O)NC1=C(Cl)C(=O)c2ccccc2C1=O`, the TGI in the test with A549 NSCLC was found to be 16.9 µM; in the test on RPMI-8226 leukemia it was 6.19 µM; with NCI-H522 lung it was 2.37 µM; in the test on COLO 205 colon, 3.83 µM; in the test on RXF 393 renal it was 6.08 µM; with U251 CNS, 15.3 µM. The values for the TGI with SK-MEL-2 melanoma, with SK-MEL-5 melanoma and with CAKI-1 renal were 6.07 µM, 6.85 µM and 10.1 µM, respectively.
For `COc1cc(-c2cc3ncccc3c3nc(N)c4cccnc4c23)cc(OC)c1OC`, the GI50 in the test on A549 NSCLC is 0.434 µM; with RPMI-8226 leukemia it was 0.556 µM; in the test with NCI-H522 lung, 0.0576 µM; in the test with COLO 205 colon it was 0.246 µM; with RXF 393 renal it was 0.742 µM; with U251 CNS it was 0.553 µM. Besides, the figures for the GI50 in the test with SK-MEL-2 melanoma, with SK-MEL-5 melanoma and in the test with CAKI-1 renal were 0.533 µM, 0.296 µM and 0.4 µM, respectively. Also, the TGI in the test on A549 NSCLC was determined as 12.9 µM; with RPMI-8226 leukemia, 23.9 µM; with NCI-H522 lung, 12 µM; in the test on COLO 205 colon, 18.9 µM; in the test on RXF 393 renal, 6.48 µM; with U251 CNS, 16.9 µM. For the same compound, the TGI with SK-MEL-2 melanoma is 8.86 µM; in the test on SK-MEL-5 melanoma it was 1.99 µM; with CAKI-1 renal, 22.6 µM.
Regarding `Cc1[nH]c2ccccc2c1C(=O)CC1(O)C(=O)Nc2ccccc21` (stereo unspecified), the TGI in the test on A549 NSCLC, in the test with RPMI-8226 leukemia, in the test on COLO 205 colon, in the test on RXF 393 renal, in the test with U251 CNS and in the test with SK-MEL-2 melanoma was above 100 µM each time. The TGI with SK-MEL-5 melanoma and with CAKI-1 renal was above 100 µM throughout.
Take `Cc1sc2nc(-c3ccncc3)c(/C=N/N=C(N)N)n2c1C`: the GI50 in the test with RPMI-8226 leukemia is 28 µM; in the test on U251 CNS, 30.5 µM; in the test on SK-MEL-5 melanoma, 38.3 µM; in the test on CAKI-1 renal, 40.8 µM. The TGI with RPMI-8226 leukemia is 78.2 µM; in the test on U251 CNS, above 100 µM; with SK-MEL-5 melanoma, above 100 µM; with CAKI-1 renal, above 100 µM.
Consider `Cc1ccc(SC(CCC(Sc2ccc(C)cc2)Sc2ccc(C)cc2)Sc2ccc(C)cc2)cc1`, for which the TGI in the test with A549 NSCLC, in the test with RPMI-8226 leukemia, with NCI-H522 lung, with COLO 205 colon, in the test on RXF 393 renal and in the test on U251 CNS was above 100 µM in each case. The TGI in the test on SK-MEL-2 melanoma, in the test on SK-MEL-5 melanoma and with CAKI-1 renal was above 100 µM in each case.
With `C=C(COC(C)=O)CC(OC(C)=O)c1ccccc1` (stereo unspecified), the TGI in the test on A549 NSCLC, with RPMI-8226 leukemia, in the test on NCI-H522 lung, in the test with COLO 205 colon, with RXF 393 renal and in the test on U251 CNS was above 100 µM each time. Further, the TGI in the test on SK-MEL-2 melanoma and with SK-MEL-5 melanoma was above 100 µM each time.
